Data: US20150105252A1, “SUBSTITUTED PYRAZOLES AS HERBICIDES” (E I DU PONT DE NEMOURS AND COMPANY, priority 2013, published 2015)

What was measured:
blackgrass = experiment: Test C preemergence; type: in vivo, Alopecurus myosuroides
Procedure, shortened: (§1)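 Visual rating, 0–100 scale (0 no effect, 100 complete control), vs untreated controls after 13–15 d greenhouse. Pre: seeds in loam/sand, treated at sowing. Post: plants in peat-based mix, 1- to 4-leaf (2–18 cm). Solvent + surfactant formulation, non-phytotoxic.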

barnyardgrass = experiment: Test B flood; type: in vivo, Echinochloa crus-galli; conditions: 250 g ai/ha, visual rating on 0 to 100 scale (0 no effect, 100 complete control), 13 to 15 days
Procedure, shortened: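 Two-leaf-stage plants, pots flooded (3 cm above soil) and treated through the water, which stayed at that depth. After 13–15 days in greenhouse conditions, visual assessment versus controls: 0 is no effect, 100 complete control, dash means no result.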

crabgrass, large = experiment: Test C preemergence; type: in vivo, Digitaria sanguinalis
Text: (§2) Seeds of plant species selected from blackgrass (Alopecurus myosuroides), ryegrass, Italian (Italian ryegrass, Lolium multiflorum), wheat (winter wheat, Triticum aestivum), galium (catchweed bedstraw, Galium aparine), corn (Zea mays), crabgrass, large (large crabgrass, Digitaria sanguinalis), foxtail, giant (giant foxtail, Setaria faberii), johnsongrass (Sorghum halepense), lambsquarters (Chenopodium album), morningglory (Ipomoea coccinea), nutsedge, yellow (yellow nutsedge, Cyperus esculentus), pigweed (redroot pigweed, Amaranthus retroflexus), ragweed (common ragweed, Ambrosia elation), soybean (Glycine max), barnyardgrass (Echinochloa crus-galli), oilseed rape (Brassica napus), waterhemp (common waterhemp, Amaranthus rudis), oat, wild (wild oat, Avena fatua), kochia (Kochia scoparia), Surinam grass (Brachiaria decumbens), foxtail, green (green foxtail, Setaria viridis), goosegrass (Eleusine indica), bromegrass, downy (downy bromegrass, Bromus tectorum), nightshade (eastern black nightshade, Solanum ptycanthum), cocklebur (common cocklebur, Xanthium strumarium), cupgrass, woolly (woolly cupgrass, Eriochloa villosa), bermudagrass (Cynodon dactylon), sunflower, (common oilseed sunflower, Helianthus annuus), Russian thistle (Salsola kali), and velvetleaf (Abutilon theophrasti) were planted into a blend of loam soil and sand and treated preemergence with test chemicals formulated in a non-phytotoxic solvent mixture which included a surfactant.
(§3) At the same time, plants selected from these crop and weed species and also chickweed (common chickweed, Stellaria media), canarygrass (littleseed canarygrass, Phalaris minor), and deadnettle (henbit deadnettle, Lamium amplexicaule), were planted in pots containing Redi-Earth® planting medium (Scotts Company, 14111 Scottslawn Road, Marysville, Ohio 43041) comprising spaghnum peat moss, vermiculite, wetting agent and starter nutrients and treated with postemergence applications of test chemicals formulated in the same manner. Plants ranged in height from 2 to 18 cm (1- to 4-leaf stage) for postemergence treatments. Treated plants and controls were maintained in a greenhouse for 13 to 15 days, after which time all species were compared to controls and visually evaluated. Plant response ratings, summarized in Table C, are based on a scale of 0 to 100 where 0 is no effect and 100 is complete control. A dash (-) response means no test result.

foxtail, giant = experiment: Test C preemergence; type: in vivo, Setaria faberii
Text: as §2, §3

ryegrass, Italian = experiment: Test C preemergence; type: in vivo, Lolium multiflorum
Procedure, shortened: as §1

pigweed [1] = experiment: Test A postemergence; type: in vivo, Amaranthus retroflexus
Procedure, shortened: (§4)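 Scoring was visual, on a scale where 100 means complete control and 0 means no effect, comparing treated with untreated plants around 10 days post-application. Compounds in surfactant-containing non-phytotoxic solvent were sprayed onto soil preemergence or onto one- to two-leaf seedlings (2–10 cm) postemergence.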

morningglory = experiment: Test A postemergence; type: in vivo, Ipomoea spp.
Procedure, shortened: as §4

pigweed [2] = experiment: Test A preemergence; type: in vivo, Amaranthus retroflexus; conditions: preemergence; for Pigweed plant response rating (0 to 100 scale): visual injury approx. 10 days after treatment
Procedure, shortened: as §4

oilseed rape = experiment: Test C preemergence; type: in vivo, Brassica napus
Text: as §2, §3

wheat = experiment: Test A postemergence; type: in vivo, Triticum aestivum
Procedure, shortened: as §4

[3] = Preemergence, 4 g ai/ha, scale 0 to 100
[4] = Preemergence, 8 g ai/ha, scale 0 to 100
[5] = Preemergence, 16 g ai/ha, scale 0 to 100
[6] = preemergence, 31 g ai/ha, visual rating, scale 0 to 100 (0 no effect, 100 complete control), 13 to 15 days
[7] = Postemergence, 500 g ai/ha, 0 to 100 scale (0 no effect, 100 complete control)
[8] = postemergence, 125 g ai/ha, about 10 days, visual rating on 0 to 100 scale (0 no effect, 100 complete control)
[9] = 500 g ai/ha, visual injury after approx. 10 days, 0 to 100 scale (0 no effect, 100 complete control)
[10] = preemergence, 62 g ai/ha, scale 0 to 100 (0 no effect, 100 complete control), 13 to 15 days
[11] = preemergence, 125 g ai/ha, 13 to 15 days, scale 0 to 100, 0 = no effect, 100 = complete control
[12] = preemergence, 250 g ai/ha, scale 0 to 100, 0 is no effect, 100 is complete control
[13] = Postemergence, 125 g ai/ha, 0 to 100 scale, 0 no effect, 100 complete control

Row | SMILES | Blackgrass plant response rating (blackgrass; [6]) | Plant response rating, Barnyardgrass (barnyardgrass) | Crabgrass, Large plant response rating (crabgrass, large; [6]) | Foxtail, Giant plant response rating (foxtail, giant; [6]) | Ryegrass, Italian plant response rating (ryegrass, Italian; [6]) | Pigweed plant response rating (pigweed [1]; [7]) | Pigweed plant response rating (pigweed [1]; [8]) | Morningglory plant response rating (morningglory; [7]) | Morningglory plant response rating (morningglory; [8]) | Pigweed plant response rating (pigweed [2]; [9]) | Oilseed Rape plant response rating (oilseed rape; [6]) | Wheat plant response rating (wheat; [7]) | Wheat plant response rating (wheat; [8]) | Blackgrass plant response rating (blackgrass; [10]) | Plant response rating, Blackgrass (blackgrass; [11]) | Crabgrass, Large plant response rating (crabgrass, large; [10]) | Plant response rating, Crabgrass, Large (crabgrass, large; [11]) | Foxtail, Giant plant response rating (foxtail, giant; [10]) | Plant response rating, Foxtail, Giant (foxtail, giant; [11]) | Ryegrass, Italian plant response rating (ryegrass, Italian; [10]) | also measured
1 | CCOc1cc(C(=O)NCC(F)(F)F)nn1Cc1cc(C(F)(F)F)nn1C [Compound 140] | 50 | 55 | 98 | 70 | 55 | 100 | 100 | 90 | 90 | 100 | 95 | 70 | 40 |  |  |  |  |  |  |  | Plant response rating, Blackgrass (blackgrass; [3]): 0; Plant response rating, Blackgrass (blackgrass; [4]): 0; Plant response rating, Blackgrass (blackgrass; [5]): 5; Plant response rating, Crabgrass, Large (crabgrass, large; [3]): 45; Plant response rating, Crabgrass, Large (crabgrass, large; [4]): 55; Plant response rating, Crabgrass, Large (crabgrass, large; [5]): 75; Plant response rating, Foxtail, Giant (foxtail, giant; [3]): 20; Plant response rating, Foxtail, Giant (foxtail, giant; [4]): 40; Plant response rating, Foxtail, Giant (foxtail, giant; [5]): 75; Plant response rating, Ryegrass, Italian (ryegrass, Italian; [3]): 0; Plant response rating, Ryegrass, Italian (ryegrass, Italian; [4]): 5; Plant response rating, Ryegrass, Italian (ryegrass, Italian; [5]): 10; Pigweed plant response rating (pigweed [2]; 125 g ai/ha, visual injury, 0 to 100 scale, approx. 10 days): 100; Plant response rating, Oilseed Rape (oilseed rape; [3]): 5; Plant response rating, Oilseed Rape (oilseed rape; [4]): 80; Plant response rating, Oilseed Rape (oilseed rape; [5]): 95
2 | O=C(NCC(F)(F)F)c1cc(CCF)n(Cc2ccnc(C(F)(F)F)c2)n1 [Compound 175] | 30 | 35 | 100 | 75 | 30 | 100 | 100 | 90 | 80 | 100 | 98 | 80 | 40 | 90 | 90 | 100 | 100 | 100 | 100 | 85 | Blackgrass plant response rating (blackgrass; [12]): 90; Crabgrass, Large plant response rating (crabgrass, large; [12]): 100; Foxtail, Giant plant response rating (foxtail, giant; [12]): 100; Plant response rating, Ryegrass, Italian (ryegrass, Italian; [11]): 90; Ryegrass, Italian plant response rating (ryegrass, Italian; [12]): 90; Pigweed plant response rating (0 to 100 scale) (pigweed [2]; 125 g ai/ha): 100; Oilseed Rape plant response rating (oilseed rape; [10]): 100; Plant response rating, Oilseed Rape (oilseed rape; [11]): 100; Oilseed Rape plant response rating (oilseed rape; [12]): 100
3 | O=C(NC1CC1)c1cc(CCF)n(Cc2ccnc(C(F)(F)F)c2)n1 [Compound 176] | 5 | 35 | 98 | 35 | 5 | 100 | 100 | 90 | 90 | 100 | 90 | 60 | 10 | 5 | 90 | 95 | 100 | 90 | 100 | 10 | Blackgrass plant response rating (blackgrass; [12]): 90; Crabgrass, Large plant response rating (crabgrass, large; [12]): 100; Foxtail, Giant plant response rating (foxtail, giant; [12]): 100; Plant response rating, Ryegrass, Italian (ryegrass, Italian; [11]): 70; Ryegrass, Italian plant response rating (ryegrass, Italian; [12]): 85; Pigweed plant response rating (0 to 100 scale) (pigweed [2]; 125 g ai/ha): 100; Oilseed Rape plant response rating (oilseed rape; [10]): 90; Plant response rating, Oilseed Rape (oilseed rape; [11]): 95; Oilseed Rape plant response rating (oilseed rape; [12]): 100
4 | CCNC(=O)c1cc(CCF)n(Cc2ccnc(C(F)(F)F)c2)n1 [Compound 178] | 5 | 20 | 100 | 65 | 5 | 100 | 100 | 100 | 70 | 100 | 70 | 30 | 0 | 30 | 85 | 95 | 100 | 90 | 100 | 5 | Plant response rating, Blackgrass (blackgrass; [5]): 0; Plant response rating, Crabgrass, Large (crabgrass, large; [5]): 30; Plant response rating, Foxtail, Giant (foxtail, giant; [5]): 5; Plant response rating, Ryegrass, Italian (ryegrass, Italian; [5]): 0; Plant response rating, Ryegrass, Italian (ryegrass, Italian; [11]): 15; Pigweed plant response rating (0 to 100 scale) (pigweed [2]; 125 g ai/ha): 100; Plant response rating, Oilseed Rape (oilseed rape; [5]): 50; Oilseed Rape plant response rating (oilseed rape; [10]): 80; Plant response rating, Oilseed Rape (oilseed rape; [11]): 98
5 | CCCc1cc(C(=O)NOC(C)C)nn1Cc1cc(C(F)(F)F)nn1C [Compound 203] | 30 | 25 | 80 | 60 | 5 | 100 |  | 90 |  |  | 50 | 80 |  | 50 | 85 | 95 | 100 | 98 | 100 | 60 | Blackgrass plant response rating (blackgrass; [12]): 90; Crabgrass, Large plant response rating (crabgrass, large; [12]): 100; Foxtail, Giant plant response rating (foxtail, giant; [12]): 100; Plant response rating, Ryegrass, Italian (ryegrass, Italian; [11]): 90; Ryegrass, Italian plant response rating (ryegrass, Italian; [12]): 90; Pigweed plant response rating (pigweed [1]; [13]): 90; Morningglory plant response rating (morningglory; [13]): 50; Pigweed plant response rating (0 to 100 scale) (pigweed [2]; 125 g ai/ha): 100; Oilseed Rape plant response rating (oilseed rape; [10]): 100; Plant response rating, Oilseed Rape (oilseed rape; [11]): 100; Oilseed Rape plant response rating (oilseed rape; [12]): 100; Wheat plant response rating (wheat; [13]): 70
